This note sets out measurements from patent US10471035B2, “Compositions and methods for using esters of meroterpenes and of other resveratrol analogues” (Sunny BioDiscovery, priority 2014, dated 2019).

For one data set, the system named is cytokine-treated HEK. The data set is described as follows: Morphology of cytokine-treated HEK. Type of data set: cell-based, human. The settings on record: 10 μg/ml; IL17A, IL22 and TNF-alpha. The text has this: This is in agreement with the Example 3, showing that SBD.SE decreases cellular response to cytokine stimulus (Table 1).
Data set [1] has as its system mouse melanoma cells (B16F10). The data set is described as follows: B16F10 melanoma growth and melanin. The class given is cell-based. The text has this:
Instead, cells cultured in the presence of SBD.SE grew slower and if allowed to reach monolayer, they become growth-arrested due to contact inhibition. […] Other retinoids, such as bexarotene, are known to have antineoplastic activity against cancers such as cutaneous T cell lymphoma.
The mechanism of action for this effect may be multifactorial and involve the inhibition of tyroinase and/or melanin secretion by melanocytes.

Another data set has as its system 3T3 cells. The data set can be described thus: 3T3 Neutral Red phototoxicity (OECD 432). The class given is cell-based. The settings on record: up to at least 100 μg/ml. The protocol:
Phototoxicity is defined as light-activated cytotoxicity. […] The protocol followed in this example was based on the OECD 432 Guidelines. Four 96 well plates were seeded with 3T3 cells (Sigma, St. Louis, Mo.; cat. 93061524-1VL) at 10,000 cells per well in DMEM supplemented with 10% iron-fortified calf serum, and grown overnight in humidified atmosphere at 37° C. in 5% CO2. Serial dilutions of SBD.SE and chlorpromazine (positive control) were added to 2 plates each. […]
[…] Plates were returned to the incubator for 24 h, afterward the medium was removed, cells were rinsed with PBS and placed in Neutral Red medium at 50 μg/ml in which cells were incubated for 3 more hours. Wells were then washed with PBS and Neutral Red was extracted from cells with 1.0% Glacial Acetic Acid/50% Ethanol/49% H2O solution.
Following a 30-minute extraction with mixing, the absorbance of each well was measured at 570 nm with Molecular Devices SpectraMax® microplate spectrophotometer. P values were calculated using two-tailed Student's test and p=0.05 was set as borderline for statistical significance.

The next data set deals with RAR. The data set can be described thus: Cignal RAR reporter assay. Type of data set: cell-based. The settings on record: up to 50 μg/ml. The source says: Tissue irritation is a common side effect of retinoids. It is mediated, at least in part, by retinoid interaction with retinoic acid receptors (RARs; Thacher S M, Vasudevan J, Chandraratna R A. Therapeutic applications for ligands of retinoid receptors. Curr Pharm Des. 2000 January; 6(1):25-58; Kambayashi H, Odake Y, Takada K, Funasaka Y, Ichihashi M, Kato S. N-retinoyl-D-glucosamine, a new retinoic acid agonist, mediates topical retinoid efficacy with no irritation on photoaged skin. Br J Dermatol. 2005 December; 153 Suppl 2:30-6).
For orientation: Reporter assays use an easily measured gene product as a stand-in for the process of interest.

Data set [2] can be described thus: DPPH assay (free radical scavenging). The class given is biochemical. The settings on record: 520 nm. The text has this: The objective of this experiment was to determine the antioxidant capacity of SBD.SE, using DPPH assay methodology. DPPH (2,2-diphenyl-1-picrylhydrazyl) is a stable free radical. The principle of the DPPH assay uses the reduction of the DPPH radical (purple) to diphenylpicrylhydrazine (yellow) as an indication of free radical scavenging capacity of a given test material (Schenk, G. H., Swieczkowski, N. K., “Colorimetric determination of pyrogallol and 2,6-dimethoxyphenol with diphenylpicrylhydrazyl,” Talanta, 1971, 18:230-4). Following the incubation of a test agent with DPPH solution, a reduction in absorbance at 520 nm compared to control is indicative of DPPH-scavenging. The degree of DPPH scavenging activity is expressed as % water control.
(In general: DPPH is a stable violet radical that fades when it is reduced.)

Another data set deals with P. acnes. The data set is described as follows: MIC against planktonic P. acnes. The settings on record: Cutibacterium acnes; exponentially-growing planktonic bacteria, oxygen-free atmosphere; read-out: MIC (minimal inhibitory concentration). Type of data set: cell-based, Propionibacterium acnes. As to the method:
Serial dilutions of SBD.SE and SBD.FA were incubated with exponentially-growing planktonic P. acnes bacteria in oxygen-free atmosphere.
The MIC (minimal inhibitory concentration) for SBD.SE was determined to be about 30 μg/ml and for SBD.FA—about 60 μg/ml.

≈ marks a conversion by molar mass, not a printed value.

On to `C=C[C@@](C)(/C=C/c1ccc(OC(=O)c2ccccc2O)cc1)CCC=C(C)C` [SBD.SE, Salicylic acid ester of bakuchiol], for which the cytokine-induced morphologic changes result in the data set on cytokine-treated HEK is listed as “prevents these changes”. For the same molecule, the “growth of B16F10 cells” value in data set [1] (1 μg/ml to 10 μg/ml) is recorded as “inhibited the growth”. The inhibition at 2.5 µg/mL in data set [1] (Mus musculus, B16-F10, 2.5 μg/ml, read-out: inhibition of B16F10 melanocyte proliferation) stood at 44%. Also, in data set [1] (versus darkened medium of water control), the “melanin in growth medium” value is on record as “completely deprived of melanin”. Besides, the “cytotoxicity in absence and presence of UVB light” value in the data set on 3T3 cells was “lack of significant cytotoxicity”. In addition, in the data set with RAR, the “transactivation of RAR” value is “no effect”. The “DPPH color (% Control)” value amounted to 86 % Control in data set [2] (0.5 ug/ml); 89 % Control in data set [2] (2 ug/ml); 59 % Control in data set [2] (10 ug/ml); 28 % Control in data set [2] (16 ug/ml); 6 % Control in data set [2] (40 ug/ml). Further, the MIC with P. acnes was around 30 µg/mL (≈ 79.7 µM).
